# Values of other authors as cited in patent US20060147526A1, “Pharmaceutical formulations comprising ß-2 adrenoreceptor agonists and xanthines” (CIPLA LIMTED, priority 2002, published 2006).
# Tests used:
# [1] = in vivo
# [2] = inhalation
SMILES,duration of action [1] [h],persistent bronchodilation lasting [2]
"CN(C)C(=O)Oc1cc(OC(=O)N(C)C)cc(C(O)CNC(C)(C)C)c1 (centres unmarked) [bambuterol, 5-[2-(tert-butylamino)-1-hydroxyethyl]-m-phenylene-bis(dimethylcarbamate)]",24,
OCc1cc(C(O)CNCCCCCCOCCCCc2ccccc2)ccc1O (centres unmarked) [salmeterol],,over 12 hours
